Columns and labels:
[1] = target: T1, Akt3 (Mus musculus, UniProt Q9WUA6); assay: Immunoblot of Akt3 phosphorylation (pAkt3) in activated nTregs; type: cell-based, WT C57BL/6J (foxp3-GFP) mice; conditions: nTregs on anti-CD3 with IL2 and anti-CD28, different concentrations of inhibitor, 72 hrs
T1 construct: nTreg cell lysates prepared on day 3 (72 hrs) of treatment were separated by SDS-PAGE and immunoblotted; endogenous in cells; host or cells: FACS-sorted primary nTregs from WT C57BL/6J (foxp3-GFP) mice
Method: (§1) FACS-sorted natural regulatory T cells (nTregs), from WT C57BL/6J (foxp3-GFP) mice were plated on anti-CD3-coated plates and cultured in activation media (IL2 and anti-CD28) without inhibitors (Stimulated) and with different concentrations of inhibitor 4-[(6-nitroquinolin-4-yl)amino]-N-[4-(pyridin-4-ylamino)phenyl]benzamide (also referred to as JJ64-E) for 72 hrs. For negative control (Non-stimulated-NS) cells were left in media containing IL-2 for 72 hrs. nTreg cell lysates prepared on day 3 (72 hrs) of treatment were separated by SDS-PAGE and immunoblotted with specific antibodies (pAkt1) or pAkt3; actin was used as loading control.

[2] = target: T2, Akt1 (Mus musculus, UniProt P31750); assay: Immunoblot of Akt1 phosphorylation (pAkt1) in activated nTregs; type: cell-based, WT C57BL/6J (foxp3-GFP) mice; conditions: nTregs on anti-CD3 with IL2 and anti-CD28, different concentrations of inhibitor, 72 hrs
T2 construct: endogenous in cells; host or cells: FACS-sorted primary nTregs from WT C57BL/6J (foxp3-GFP) mice
Method: as §1

[3] = tested on: nTregs; assay: Proliferation (level of VCT) of FACS-sorted nTregs by flow cytometry; type: cell-based, C57BL/6J(foxp3-GFP); conditions: anti-CD3, IL2 and anti-CD28, 72 hrs, live gated cells
Method: (§2) FACS-sorted nTregs, CD4+ and CD8+ T cells from C57BL/6J(foxp3-GFP) were plated on anti-CD3-coated plates and cultured in activation media (IL2 and anti-CD28) without inhibitors (Stimulated) and with inhibitors (JJ64-E) for 72 hrs. For negative control (Non-stimulated-NS) cells were left in media containing IL-2 for 72 hrs. After 72 hrs Proliferation (level of VCT) in live gated cells was measured by flow cytometry.

[4] = tested on: CD8+ T cells; assay: Proliferation (level of VCT) of FACS-sorted CD8+ T cells by flow cytometry; type: cell-based, C57BL/6J(foxp3-GFP); conditions: anti-CD3, IL2 and anti-CD28, 72 hrs, live gated cells
Method: as §2

[5] = tested on: CD4+ T cells; assay: Proliferation (level of VCT) of FACS-sorted CD4+ T cells by flow cytometry; type: cell-based, C57BL/6J(foxp3-GFP); conditions: anti-CD3, IL2 and anti-CD28, 72 hrs, live gated cells
Method: as §2

[6] = tested on: Tregs (CD4+Foxp3+); assay: Percentage of Tregs in vivo in TC-1 tumor model; set-up: species or system WT C57BL/6J mice; conditions: TC-1 tumor-bearing mice, 5 mg/kg or 10 mg/kg i.p. every day from day 10, analysed day 15
Method: (§3) WT C57BL/6J mice (n=3/group) were injected s.c. in the right flank with 7×10^4 TC-1 cells. Mice from appropriate groups were treated with either 5 mg/kg or 10 mg/kg of JJ64-E injected (i.p.) every day starting on day 10 after tumor implantation throughout the experiment. All groups were euthanized on day 15 of TC-1 implantation. The percentage of Tregs (CD4+Foxp3+) was analyzed by flow cytometry.
(§4) Statistical significance was determined by one-way ANOVA with Tukey's multiple comparison test (*, p<0.05; **, p<0.01; ***, p<0.001).

[7] = tested on: CD8 and other (FoxP3neg) CD4 T cells; assay: Percentage of CD4 and CD8 T cells in vivo in TC-1 tumor model; set-up: species or system WT C57BL/6 mice; conditions: TC-1 tumor-bearing mice, 5 mg/kg or 10 mg/kg i.p. everyday from day 10, day 15, spleen
Method: as §3, with “C57BL/6 4-6 weeks old female” for “C57BL/6J”, “(n=5/group)” for “(n=3/group)”, “everyday” for “every day”, “CD4 and CD8 were” for “Tregs (CD4+Foxp3+) was”, “analyzed in splenic CD4+ cells” for “analyzed”

[8] = tested on: TC-1 tumor; assay: TC-1 tumor growth and survival, JJ64-E alone or with vaccine; type: in vivo, C57BL/6 mice; conditions: i.p. every day from day 6
Method: (§5) C57BL/6 mice (n=5/group) were injected s.c. in the right flank with 7×10^4 TC-1 cells. Mice from appropriate groups were injected weekly with vaccine (s.c.) or DMSO 5% as a control. Mice were also treated with vaccine (weekly) along with either 10 mg/kg or 20 mg/kg of JJ64-E injected (i.p.) every day starting on day 6 after tumor implantation throughout the experiment.
FIGS. 5B and 5C are bar diagrams showing average tumor volumes of mice for each group. FIG. 5D is a Kaplan-Meier plot of the overall survival. Statistical significance was determined by Log-rank (Mantel-Cox) test.
as §4

[9] = tested on: TC-1 tumor; assay: TC-1 tumor growth and survival, JJ64-C alone or with vaccine; type: in vivo, C57BL/6 mice; conditions: i.p. every other day from day 6
Method: as §5, with “JJ64-C (or FIG. 7A or Formula 18)” for “JJ64-E”, “every other” for “every”
FIGS. 7C and 7D are bar diagrams representing average tumor volumes of mice for each group. FIG. 7E is a Kaplan-Meier plot of the overall survival. Statistical significance was determined by Log-rank (Mantel-Cox) test.
as §4

[10] = tested on: iTreg induction (CD4+FoxP3+ cells); assay: iTreg induction from CD4+FoxP3- cells (TGF-β), flow cytometry; type: cell-based; conditions: anti-CD3, IL2, anti-CD28, TGF-β, 72 hrs
Method: (§6) FACS-sorted CD4+FoxP3− cells were plated on anti-CD3-coated plates with soluble IL2 and anti-CD28 with TGF-β (induction) Cell were induced for iTregs with JJ64-B (FIG. 6A) without inhibitor (Induction-IND)) for 72 hrs. Cells were harvested and the frequency of CD4+FoxP3+ cells was measured by flow cytometry.
as §6, with “JJ64-C (JJ64 modified drug C or Formula 18) or” for “JJ64-B (FIG. 6A)”
as §6, with “JJ64-D (JJ64 modified drug D or FIG. 9A) or” for “JJ64-B (FIG. 6A)”

[11] = high dose as monotherapy (10 or 20 mg/kg tested)
[12] = lower dose combined with weekly vaccine s.c. (10 or 20 mg/kg tested)
[13] = high dose as monotherapy (10 or 20 mg/kg)
[14] = lower dose combined with weekly vaccine s.c. (10 or 20 mg/kg)

T2 sequence (P31750 whole entry): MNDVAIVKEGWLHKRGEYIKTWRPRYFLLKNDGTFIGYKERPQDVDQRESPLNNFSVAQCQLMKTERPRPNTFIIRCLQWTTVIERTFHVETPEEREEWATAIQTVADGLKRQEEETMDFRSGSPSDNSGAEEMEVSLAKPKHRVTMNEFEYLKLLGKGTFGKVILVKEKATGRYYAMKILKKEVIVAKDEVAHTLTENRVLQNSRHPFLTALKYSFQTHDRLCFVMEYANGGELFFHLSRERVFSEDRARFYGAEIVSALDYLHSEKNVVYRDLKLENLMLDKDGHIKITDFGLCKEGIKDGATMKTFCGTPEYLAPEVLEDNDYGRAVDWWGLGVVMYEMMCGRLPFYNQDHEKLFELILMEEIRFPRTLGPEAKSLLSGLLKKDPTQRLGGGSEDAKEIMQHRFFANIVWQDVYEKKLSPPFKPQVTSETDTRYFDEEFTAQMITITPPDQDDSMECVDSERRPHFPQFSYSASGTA
T1 sequence (Q9WUA6 whole entry): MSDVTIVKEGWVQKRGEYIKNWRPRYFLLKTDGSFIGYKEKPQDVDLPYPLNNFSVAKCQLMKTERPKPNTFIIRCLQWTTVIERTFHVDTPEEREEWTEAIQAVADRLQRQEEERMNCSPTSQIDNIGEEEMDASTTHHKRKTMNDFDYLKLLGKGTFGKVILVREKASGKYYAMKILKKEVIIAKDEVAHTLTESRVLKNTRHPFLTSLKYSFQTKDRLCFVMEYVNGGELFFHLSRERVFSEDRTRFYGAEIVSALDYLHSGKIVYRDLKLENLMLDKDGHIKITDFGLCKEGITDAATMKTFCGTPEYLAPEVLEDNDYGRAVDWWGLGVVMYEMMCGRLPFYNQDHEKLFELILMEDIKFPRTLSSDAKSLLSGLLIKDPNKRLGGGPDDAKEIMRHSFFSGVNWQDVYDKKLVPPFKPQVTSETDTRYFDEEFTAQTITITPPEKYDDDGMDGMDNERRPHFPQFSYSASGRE

Akt3 phosphorylation in Tregs (pAkt3 immunoblot) [1]	Akt1 phosphorylation in Tregs (pAkt1 immunoblot) [2]	Compound	Treg proliferation (level of VCT) [3]	CD8 T cell proliferation (level of VCT) [4]	other CD4 T cell proliferation (level of VCT) [5]	percentage of Tregs (CD4+Foxp3+) in vivo [6]	CD8 T cells in vivo [7]	other (FoxP3neg) CD4 T cells in vivo [7]	TC-1 tumor growth (tumor volume) [8, 11]	overall survival (Kaplan-Meier) [8, 11]	TC-1 tumor growth (tumor volume) [8, 12]	overall survival (Kaplan-Meier) [8, 12]	TC-1 tumor growth (tumor volume) [9, 13]	overall survival (Kaplan-Meier) [9, 13]	TC-1 tumor growth (tumor volume) [9, 14]	overall survival (Kaplan-Meier) [9, 14]	iTreg induction (frequency of CD4+FoxP3+ cells) [10]
inhibits Akt3	not Akt1 phosphorylation	O=C(Nc1ccc(Nc2ccncc2)cc1)c1ccc(Nc2ccnc3ccc([N+](=O)[O-])cc23)cc1 [4-[(6-nitroquinolin-4-yl)amino]-N-[4-(pyridin-4-ylamino)phenyl]benzamide]	selectively inhibits Treg proliferation	sparing CD8	sparing CD8 and other CD4 T cells	decreases Tregs in vivo	does not affect CD8	does not affect CD8 and other (FoxP3neg) CD4 T cells	inhibits TC-1 tumor growth	prolongs the survival	inhibits TC-1 tumor growth	prolongs the survival					
		O=C(Nc1cccc(Nc2ccncc2)c1)c1cccc(Nc2ccnc3ccc(F)cc23)c1 [compound 18]											inhibits TC-1 tumor growth	prolongs the survival	inhibits TC-1 tumor growth	prolongs the survival	inhibits iTregs induction
